{
  "source": "patent US6929949B1",
  "about": "“Corona ion generating method and apparatus for the manipulation of molecules and biological cells” (University of South Florida, priority 2002, dated 2005)",
  "tested_on": "human A204 sarcoma cells",
  "test": "Corona charge facilitated uptake of calcein by cells in culture (fluorescence microscopy)",
  "type": "cell-based",
  "details": "for % FLOURESCENT (percentage of fluorescing cells): 10 μM calcein in PBS, visually estimated",
  "description": "Referring initially to FIG. 2, the present invention has been used experimentally to facilitate the uptake of calcein by cells in culture. The experimental apparatus is shown as in FIG. 2. 35 mm diameter cell culture plates 4 were seeded with 0.5×10^6 human A204 sarcoma cells 5 approximately 24 hours prior to the experiment to allow time for the cells to attach to the growth surface on the bottom of each dish. Immediately prior to treating the cells with corona charge in air, the growth media was aspirated. Then 500 ÂμI of 10 ÂμM Calcein 6, in phosphate buffered saline 7; was introduced onto the bottom of the plate. Calcein molecules in the phosphate buffered saline are shown in the figure as a negatively charged species. The liquid was distributed over the entire growth surface. […] Corona charge 10 was deposited onto the samples in the presence of calcein for a range of times from 0 minutes to 10 minutes. The solution of calcein was allowed to remain in contact with each sample for a period of 10 minutes after corona exposure. Additionally, a positive or negative bias potential 11 can be applied to the sample. Each plate was then washed with two separate 1 ml aliquots of phosphate buffered saline to remove extracellular calcein. Finally, a 1 ml aliquot of phosphate buffered saline was pipetted into each sample plate. Samples were viewed with florescent microscopy to visually confirm the entry of the nonpermanent calcein resulting from corona charge exposure. The percentage of fluorescing cells was visually estimated based upon the total number of cells in the plates. The table shown below indicates the resulting percentages of fluorescing cells in each sample.",
  "data": [
    {"smiles": "O=C(O)CN(CC(=O)O)Cc1cc2c(cc1O)Oc1cc(O)c(CN(CC(=O)O)CC(=O)O)cc1C21OC(=O)c2ccccc21", "note": "[calcein, Calcein]", "values": [
      {"measurement": "entry of calcein into the cells", "setting": "absence of corona exposure (sample 6)", "value": "did not result in the entry of calcein into the cells"},
      {"measurement": "% FLOURESCENT (percentage of fluorescing cells)", "setting": "corona exposure time 0 minutes (no corona exposure)", "value": 0, "unit": "%"},
      {"measurement": "% FLOURESCENT (percentage of fluorescing cells)", "setting": "corona exposure time 2 minutes, positive corona, wire at 6000 V, 2.5 cm away", "value": "Less than 1%"},
      {"measurement": "% FLOURESCENT (percentage of fluorescing cells)", "setting": "corona exposure time 4 minutes, positive corona, wire at 6000 V, 2.5 cm away", "value": 15, "unit": "%"},
      {"measurement": "% FLOURESCENT (percentage of fluorescing cells)", "setting": "corona exposure time 6 minutes, positive corona, wire at 6000 V, 2.5 cm away", "value": 20, "unit": "%"},
      {"measurement": "% FLOURESCENT (percentage of fluorescing cells)", "setting": "corona exposure time 8 minutes, positive corona, wire at 6000 V, 2.5 cm away", "value": 30, "unit": "%"},
      {"measurement": "% FLOURESCENT (percentage of fluorescing cells)", "setting": "corona exposure time 10 minutes, positive corona, wire at 6000 V, 2.5 cm away", "value": 80, "unit": "%"}
    ]}
  ]
}
